Data from patent US20040142960A1 (priority 2001, published 2004).
Where a name gives a salt, the structure may show the parent alone.

Columns and labels:
Langerhans cells = details: administered intraperitoneally; cited from earlier work
HSV-1 [1] = assay: systemic or local treatment, HSV-1 reactivation from latency; type: in vivo
[2] = antibody response in treated subjects; type: in vivo
HSV-1 [3] = details: cited from earlier work
bone marrow cells = details: concentrations at which the adrenergic antagonists are effective; cited from earlier work

## COC(=O)[C@@H]1[C@H]2C[C@H]3c4[nH]c5ccccc5c4CCN3C[C@@H]2CC[C@@H]1O [yohimbine, (16α,17α)-hydroxyyohimban-16-carboxylic acid methyl ester]
Langerhans cells
  Langerhans cells migration: enhances the Langheran's cells migration
HSV-1 [1]; in vivo
  inflammation during HSV-1 reactivation: reduced inflammation
HSV-1 [1]; systemic or local treatment
  HSV-1 reactivation frequency: reduces the HSV-1 reactivation frequency
  local norepinephrine concentration: local increase of norepinephrine concentration
[2]
  antibody response: stimulates and enhances the antibody response

## COC(=O)[C@@H]1[C@H]2C[C@H]3c4[nH]c5ccccc5c4CCN3C[C@@H]2CC[C@@H]1O [yohimbine hydrochloride]
HSV-1 [3]
  activity on HSV-1: inactive

## COc1cc2nc(N3CCN(C(=O)c4ccco4)CC3)nc(N)c2cc1OC [prazosin]
Bone marrow cells
  relative order of potency in counteracting norepinephrine: prazosin>phentolamine>yohimbine

## Cc1ccc(N(CC2=NCCN2)c2cccc(O)c2)cc1 [phentolamine]
Bone marrow cells
  relative order of potency in counteracting norepinephrine: prazosin>phentolamine>yohimbine
